Laboratory results: patent publication US20050169839A1, “Biomarker for efficacy of appetite suppressant drugs” (priority 2002, published 2005)
Several values for one entry are separate records, joined by “and”; a condition that tells them apart may be missing. Equal values may be shown once.

Legend:
Assay type in all cases: in vivo, rat
[1] = Body weight change after 4-day dosing in male DIO rats; conditions: for BW change (g), mean: group mean
Method: (§1) To determine if plasma AGRP level correlates with a subject's intake of MC4R agonists given as appetite suppressants, we measured plasma AGRP level in DIO rats after treatment with specific MC4 agonists. Male DIO rats were treated either with an MC4 agonist (15 mg/kg, po, b.i.d., for 4 days, n=7) or with vehicle (n=7). The specific MC4 agonist used for treatment was (aR)-N,N-bis(4-[(tert-butylamino)carbonyl]-4-cyclohexyl 1-{4-fluoro-N-[(2-methyl-2-azabicyclo[2.2.1]hept-6-yl)carbonyl]-D-phenylalanyl}piperidin-2-yl)-4-fluoro-N-[(2-methyl-2-azabicyclo[2.2.1]hept-6-yl)carbonyl]-D-phenylalaninamide hydrochloride (hereinafter Compound A).
(§2) After 4 days of treatment with Compound A or with vehicle, plasma samples were obtained from each rat. Plasma AGRP level was thereafter determined using an RIA Kit from Phoenix Pharmaceuticals, Inc. (Belmont, Calif.).
(§3) In a different experiment, groups of male DIO rats were treated either with a second MC4R agonist (20 mg/kg, po, b.i.d., for 4 days, n=6) or with vehicle (n=5). In this study, the specific MC4 agonist used was 4-[2-methylaminocarbonyl-4-flurorphenyl]-1-{[(3S, 4R)-1-tert-butyl-4-(2,4-difluorophenyl)-pyrrolidin-3-yl]carbonyl}piperidine (hereinafter Compound B). […] For each treatment group, plasma samples were collected after 4 days of treatment and AGRP level was measured using an RIA Kit from Phoenix Pharmaceuticals, Inc. (Belmont, Calif.).
as §2, with “Male DIO rats were treated either with S(+) fenflurarnine (3 mg/kg, po, b.i.d., for 4 days, n=7) or with vehicle (n=5). […] After” for “After”

plasma AGRP = assay: Plasma AGRP level (RIA) after 4-day dosing in male DIO rats; conditions: for AGRP (pg/0.1 mL), mean / AGRP (pg/0.1 mL): plasma; for AGRP (pg/0.1 mL), mean: group mean
Description: A human AGRP RIA assay kit (Phoenix Pharmaceuticals, Inc., Belmont, Calif.), a human leptin RIA kit (Linco Research, Inc., St. Charles, Mo.), and a human specific insulin RIA kit (Linco Research, Inc., St. Charles, Mo.), were used to measure AGRP, leptin, and insulin, respectively in human plasma samples. A Phoenix AGRP RIA kit, which contains synthetic human AGRP (aa83-132) as a standard, was also used to measure AGRP level in rat plasma samples. […] Statistical comparison is based on one-way ANOVA, t or paired t test.
as §1, §2, §3
as §2, with “Male DIO rats were treated either with S(+) fenflurarnine (3 mg/kg, po, b.i.d., for 4 days, n=7) or with vehicle (n=5). […] After” for “After”

[2] = Body weight change after 4-day sibutramine dosing in male Sprague-Dawley rats; conditions: sibutramine 3 mg/kg oral once daily for 4 days; mean±standard error; n=7; vehicle gained 23.6±4.16 g
Method: Male Sprague-Dawley rats (Charles River Laboratories, Wilmington, Mass.), which were 71 days of age at the beginning of the experiment, were treated with either vehicle alone (0.5% methyl cellulose; n=5 rats) or sibutramine (3 mg/kg of body weight in 0.5% methyl cellulose; n=7 rats). The treatment regime consisted of a single daily oral dose of the test compound every day for 4 days.
The body weight of each rat was measured before commencement of the experiment and at its conclusion. After 4 days of treatment with either test compound, plasma samples of each rat were collected for the measurement of AGRP level. […] The AGRP kit contains a synthetic human AGRP fragment (aa83-132) as the standard. […] For AGRP RIA, 100 μl rat plasma was used per assay. […] Statistical comparison is based on unpaired t test.

[3] = Compound B 20 mg/kg po b.i.d. 4 days, n=6
[4] = Compound B 20 mg/kg po b.i.d. 4 days, individual rats 1-6
[5] = S(+) fenfluramine 3 mg/kg po b.i.d. 4 days, n=7
[6] = S(+) fenfluramine 3 mg/kg po b.i.d. 4 days, individual rats 1-7
[7] = Compound A 15 mg/kg po b.i.d. 4 days, n=7
[8] = Compound A 15 mg/kg po b.i.d. 4 days, individual rats 1-7, hydrochloride, 15 mg/kg

Question: Which “effect on body weight (in words)” value ([1]; Compound B 20 mg/kg po b.i.d. 4 days, DIO rats) does the source give for CNC(=O)c1cc(F)ccc1C1CCN(C(=O)[C@@H]2CN(C(C)(C)C)C[C@H]2c2ccc(F)cc2F)CC1 [Compound B, 4-[2-methylaminocarbonyl-4-flurorphenyl]-1-{[(3S, 4R)-1-tert-butyl-4-(2,4-difluorophenyl)-pyrrolidin-3-yl]carbonyl}piperidine] here?
Answer: not effective at reducing body weight

Question: And the “BW change (g), mean” value [1, 3]?
Answer: 17.5 g

Question: What about the “BW change” value [1, 4] of the same molecule?
Answer: 25 g (2×) and 5 g and 23 g and 15 g and 12 g

Question: And the body weight gained ([1]; Compound B 20 mg/kg po b.i.d. 4 days, mean±standard error, vehicle gained 14.2±1.9 g)?
Answer: 17.5 ± 3.3 g

Question: What about the “AGRP (pg/0.1 mL), mean” value (plasma AGRP; [3]) of the same molecule?
Answer: 48.4 pg/0.1 mL

Question: What about the “AGRP (pg/0.1 mL)” value (plasma AGRP; [4]) of the same molecule?
Answer: 45.6 pg/0.1 mL and 26 pg/0.1 mL and 39.8 pg/0.1 mL and 66.9 pg/0.1 mL and 47 pg/0.1 mL and 64.8 pg/0.1 mL

Question: And the “Plasma AGRP level” value (plasma AGRP; Compound B 20 mg/kg po b.i.d. 4 days, vehicle 45.8±14)?
Answer: 48.4±6.3 pg/100 μl plasma

Question: Which “BW change (g), mean” value [1, 5] does the source give for CCN[C@@H](C)Cc1cccc(C(F)(F)F)c1 [S(+) fenfluramine, reference compound] here?
Answer: -16.3 g

Question: And the “BW change” value [1, 6]?
Answer: −25 g and −13 g (2×) and −10 g (2×) and −15 g and −28 g

Question: And the body weight lost ([1]; S(+) fenfluramine 3 mg/kg po b.i.d. 4 days, mean±standard error, vehicle gained 14.2±1.9 g)?
Answer: 16.3 ± 2.7 g

Question: And the “AGRP (pg/0.1 mL), mean” value (plasma AGRP; [5])?
Answer: 48.3 pg/0.1 mL

Question: And the “AGRP (pg/0.1 mL)” value (plasma AGRP; [6])?
Answer: 39.3 pg/0.1 mL and 22.8 pg/0.1 mL and 57.8 pg/0.1 mL and 62.6 pg/0.1 mL and 94.4 pg/0.1 mL and 16.9 pg/0.1 mL and 44.6 pg/0.1 mL

Question: And the “average plasma AGRP level” value (plasma AGRP; S(+) fenfluramine 3 mg/kg po b.i.d. 4 days, vehicle 45.8±14)?
Answer: 48.3±9.9 pg/100 μl plasma

Question: Which body weight gained [2] does the source give for CC(C)CC(N(C)C)C1(c2ccc(Cl)cc2)CCC1.Cl.O (centres unmarked) [sibutramine, N-{1-[1-(4-chlorophenyl)cyclobutyl]-3-methylbutyl}-N,N-dimethylamine hydrochloride monohydrate] here?
Answer: 10 ± 4.76 g

Question: With “(aR)-N,N-bis(4-[(tert-butylamino)carbonyl]-4-cyclohexyl 1-{4-fluoro-N-[(2-methyl-2-azabicyclo[2.2.1]hept-6-yl)carbonyl]-D-phenylalanyl}piperidin-2-yl)-4-fluoro-N-[(2-methyl-2-azabicyclo[2.2.1]hept-6-yl)carbonyl]-D-phenylalaninamide hydrochloride [Compound A]” as the molecule, how does the “BW change (g), mean” value [1, 7] read?
Answer: -4.9 g

Question: And the “BW change” value [1, 8]?
Answer: 2 g and 1 g and −2 g and −5 g and −7 g (2×) and −16 g

Question: What about the body weight lost ([1]; Compound A 15 mg/kg po b.i.d. 4 days, mean±standard error, vehicle gained 3.7±1.4 g) of the same molecule?
Answer: 4.9 ± 2.3 g

Question: And the “Plasma AGRP level” value (plasma AGRP; Compound A 15 mg/kg po b.i.d. 4 days, mean±standard error)?
Answer: 36.2±2.5 pg/100 μl plasma

Question: What about the “AGRP (pg/0.1 mL), mean” value (plasma AGRP; [7]) of the same molecule?
Answer: 36.2 pg/0.1 mL

Question: What about the “AGRP (pg/0.1 mL)” value (plasma AGRP; [8]) of the same molecule?
Answer: 35.8 pg/0.1 mL and 42.2 pg/0.1 mL and 38.1 pg/0.1 mL and 46.2 pg/0.1 mL and 33 pg/0.1 mL and 26.5 pg/0.1 mL and 31.6 pg/0.1 mL
